1 compound from US20220211606A1, “LIQUID COMPOSITION FOR INFLUENCING THE MICROBIOTA ON A SUBJECT'S SKIN COMPRISING CHITOSAN” (Medoderm GmbH, priority 2019, published 2022) can be followed below.

For experiment [1], the system named is Staphylococcus aureus. The experiment in a line: Repopulation of disinfected human skin (Rodac contact plates), pathogen. It is filed as in vivo. Particulars: upper arm disinfected with 70% isopropanol; 0, 1 h, 2 h, 4 h, 6 h; 100 μl on approx. 50 cm^2.
In experiment [2] the test system is Staphylococcus aureus. The experiment in a line: Microbiome agar matrix test, surface pathogen. Type of experiment: cell-based. Particulars: 20 μl on agar surface; 37° C. over night; inoculum 2.0×10^6 CFU. How it is done:
For the present experiment, the above microbiome organisms are seeded out on an agar plate. Afterwards the organisms are embedded in a special microbiome agar matrix to simulate the epidermis layers. […] In the next step the test formulation is applied onto small areas on the surface and the test setup is incubated at 37° C. over night. After incubation, growth of the matrix-embedded microbiome organisms and superficial Staphylococcus aureus is used for the assessment of an influence of the test formulation on the microbiome organisms. […] If the applied product also causes a growth inhibition of the microbiome organisms, the product is assessed to have negative influence on the human microbiome. A disinfectant agent (isopropanol:water 70:30) is used as […] to inhibit growth of the pathogen as well as the microbiome organisms. Buffer solution (used for dilution, if applied; 0.9% (w/w) NaCl in water) is used as a negative control. The sample volume of test formulation is 20 μl. The inoculum microbiome contains 2.0×10^6 CFU (colony forming units). The inoculum pathogen was set at 2.0×10^6 CFU.

Experiment [3] concerns endogenous skin microflora. The experiment is described as follows: Repopulation of disinfected human skin after contact with worn clothing (Rodac contact plates). Conditions: after 6 h test period, 10 minutes contact with worn clothing, sampled 1 h after removal. It is filed as in vivo.
Description: The test germ corresponded to endogenous skin microflora. […] The sample size was approx. 50 cm^2 skin surface area and the sample volume 100 μl. Contact time was 0, 1 h, 2 h, 4 h, 6 h, after contact and 1 h after contact.
Rodac contact plates were used for sampling of microorganisms from human skin (upper arm) before and after treatment. The upper arm region was chosen to prevent contamination by touching and clothing. Disinfection was performed with 70% isopropanol.
After the 6 h test period, the test areas were exposed to worn clothing for 10 minutes, resulting in a typical transfer of microorganism from clothing to the skin surface (time point directly after contact). 1 h after removal of clothing the bacteria were collected from the test areas aby Rodac contact plates.

For `CC(C)O` [Disinfection, isopropanol], the “Staphylococcus aureus on the test area” value in the experiment on Staphylococcus aureus [1] is given as “only found on the “Disinfection” test area”. Further, the “growth of superficial Staphylococcus aureus” value with Staphylococcus aureus [2] is “neither growth on the surface”. Moreover, the “microorganisms collected 1 h after exposure to worn clothing” value in experiment [3] is on record as “also showed pathogenic organisms (gram-negative bacteria=big colonies)”.
